Results on three compounds are retold here after article PMC8231556, “Inhibiting Endothelial Cell Function in Normal and Tumor Angiogenesis Using BMP Type I Receptor Macrocyclic Kinase Inhibitors” (Cancers, 2021).

Assay [1] has as its system constitutively active ALK2 (caALK2). The assay is described as follows: caALK2-induced BRE-Luc reporter activity in C2C12 cells. It is filed as cell-based. The note with it: C2C12 cells, 0.1, 0.5 or 1 μM, 16 hours. An excerpt:
To further investigate and validate the selective inhibitory effects of OD16 and OD29 toward BMP9/ALK1 and BMP6/ALK2 signaling, we transfected C2C12 myoblast cells with constitutively active mutant ALK1 and ALK2 (caALK1 and caALK2). These constitutively active receptors signal in the absence of exogenous ligands and allow for a more direct assessment of inhibitory effects that are elicited by kinase receptor inhibitors.
Figure S2. Structural model of (A) LDN−193189, (B) OD16 (grey) overlay with LDN−193189 (green), (C) OD29 (grey) over-lay with LDN−193189 (green) bind to the ALK1 hinge region in the ATP pocket.
Figure S3. RT-qPCR analysis of the ALK1, ALK2 and GAPDH mRNA expression in EA.hy926 and HUVEC cells. Mean Cq and Cq standard error of the mean (SEM) are listed. Representative results from three independent experiments are shown.
Figure S4. OD29 and OD16 are two small molecule BMP type I receptors kinase inhibitors in C2C12 cells. Effects of vehicle control (DMSO), LDN−193189, OD16 or OD29 on BRE transcriptional luciferase reporter activity induced by the ectopic expression of caALK1 (A) or caALK2 (B) in C2C12 cells. Cells were incubated with the inhibitors in three different con-centrations (0.1 μM, 0.5 μM or 1 μM) for 16 hours. Representative results from three biologically independent experiments are shown as mean ± SD. NS, not significant; * p < 0.05, ** p < 0.005; *** p < 0.001. […]

The target in the next assay is ALK5 (Homo sapiens, UniProt P36897). In words: radiometric protein kinase assay, affinity (Kd). Type of assay: binding. The protocol: The binding interaction profile of the compounds for ALK1–6, ACVR2A, ACVR2B, and TGFβR2 was determined by using radiometric protein kinase assay. For each compound, ten different concentrations (from 3 × 10^−6 M to 9 × 10^−11 M) were used in the protein kinase reaction. The inhibitor binding constants (Kd values) were calculated based on the 10 corresponding residual activities for each compound using Prism 5.04 (Graphpad, San Diego, CA, USA) according to the following formula:Kd = ([K][I]/[C]) where [K] = molar concentration of non-inhibitor bound kinase at equilibrium, [I] = molar concentration of the free inhibitor at equilibrium, [C] = molar concentration of kinase-inhibitor complex at equilibrium.
ALK5, sequence (P36897 34-503): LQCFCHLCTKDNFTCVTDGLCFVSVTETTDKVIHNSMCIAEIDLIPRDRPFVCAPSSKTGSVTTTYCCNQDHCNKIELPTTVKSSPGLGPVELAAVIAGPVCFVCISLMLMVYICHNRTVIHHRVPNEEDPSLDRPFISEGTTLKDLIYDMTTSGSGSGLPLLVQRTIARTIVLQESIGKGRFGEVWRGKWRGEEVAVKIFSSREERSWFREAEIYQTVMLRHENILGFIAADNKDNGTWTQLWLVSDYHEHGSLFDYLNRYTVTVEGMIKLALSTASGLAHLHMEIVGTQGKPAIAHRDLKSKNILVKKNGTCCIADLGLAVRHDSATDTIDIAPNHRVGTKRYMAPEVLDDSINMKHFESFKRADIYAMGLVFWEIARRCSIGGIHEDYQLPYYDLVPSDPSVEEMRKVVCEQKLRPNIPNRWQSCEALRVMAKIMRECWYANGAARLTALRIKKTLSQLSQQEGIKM

The test system of another assay is VEGF-induced pVEGFR. The assay is described as follows: Western blot of VEGF-induced VEGFR phosphorylation in HUVECs. The note with it: VEGF 40 ng/mL. It is filed as cell-based, human. The protocol:
EA.hy926 cells or HUVECs were seeded in 6-well plates and starved in a serum-free medium for 4 h after reaching 80% confluence. The compounds were added 30 min prior to stimulation with the corresponding ligands. EA.hy926 cells were incubated with BMP9 (1 ng/mL), BMP6 (50 ng/mL), TGF-β2 (1 ng/mL), or vehicle control for 1 h. For HUVECs, after 4 h starvation, the cells were pre-treated with or without the indicated compounds for 30 min and subsequently stimulated with VEGF (40 ng/mL) for 10 min. The cells were harvested and lysed in radioimmunoprecipitation assay (RIPA) lysis buffer containing 1× complete protease inhibitor cocktail (11836153001, Roche, Basel, Switzerland). The protein concentration was determined using the DC protein assay kit (5000111, Bio-Rad). After adding loading buffer, the samples were boiled and proteins separated by sodium dodecyl sulfate polyacrylamide gel electrophoresis (SDS-PAGE). […] The protein bands were quantified using ImageJ (National Institutes of Health, Bethesda, MD, USA).
In general terms: Immunoblotting shows a protein as a band on a membrane.

As to `c1ccc2c(-c3cnn4cc(-c5ccc(N6CCNCC6)cc5)cnc34)ccnc2c1` [LDN-193189, reference compound], in assay [1], the “effect on caALK2-induced BRE-Luc reporter activity” value is recorded as “in a dose-dependent manner attenuated”.

In general, Kd refers to a measure of binding affinity in units of concentration. Read a low Kd as tighter binding. As for `CN1CCc2cccc(c2)Nc2nccc(n2)N2CCCc3cc(ccc32)C1` [OD16], binding at ALK5 was put at a Kd of 360 nM.

In the case of `CN1CCC(=O)NCCNc2ccn3ncc(c3n2)-c2cccc(c2)C1` [OD29], the “effect on VEGF-induced pVEGFR” value in the assay with VEGF-induced pVEGFR was “did not affect”. This compound also returned a Kd at ALK5 of 1010 nM.
